Results reported in patent US10584157B2 (priority 2015, dated 2020).
Where “and” joins values, the source holds several entries; their conditions need not be identical. Equal entries are not always repeated. Entries after “also recorded” stand apart in the source; their conditions may differ. Where two headings read alike, the source gives them in different places. Square brackets hold non-standard residues; d marks the D form. Ends that are not written are not given here. Peptide text beside a SMILES is read from it.

Legend:
SEB = SEB (Staphylococcus aureus, UniProt P01552); test: biochemical; format: binding, S. aureus; settings: for kon: read-out: Ka (1/Ms), association rate; for koff: read-out: Kd (1/s), dissociation rate
TSST-1 = TSST-1 (Staphylococcus aureus, UniProt P06886); test: biochemical; format: binding, S. aureus; settings: for kon: read-out: Ka (1/Ms), association rate; for koff: read-out: Kd (1/s), dissociation rate
SMEZ = format: binding, Streptococcus pyogenes
PBMC induced with SEB = format: cell-based, human
cell-surface B7-2 = format: binding, human
cell-surface CD28 [1] = format: binding
[2] = system: SEB lethality in D-galactosamine-sensitized mice; format: in vivo, BALB/c mice
[3] = system: PBMC induced with αCD3/αCD28; format: cell-based, human
[4] = system: PBMC induced with E. coli LPS; format: cell-based, human
PBMC induced with αCD3 = format: cell-based, human
cell-surface CD28 [5] = target: cell-surface CD28 (Staphylococcus aureus, UniProt P01552); settings: cited from earlier work
Chain of cell-surface CD28 (Staphylococcus aureus, UniProt P01552) (P01552 28-266 limits assumed): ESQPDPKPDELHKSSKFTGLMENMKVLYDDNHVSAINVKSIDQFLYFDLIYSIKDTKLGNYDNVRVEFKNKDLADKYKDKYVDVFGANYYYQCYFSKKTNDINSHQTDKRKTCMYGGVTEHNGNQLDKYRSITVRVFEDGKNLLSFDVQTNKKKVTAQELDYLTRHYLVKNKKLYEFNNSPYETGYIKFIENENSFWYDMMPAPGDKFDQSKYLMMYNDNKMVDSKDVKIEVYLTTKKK

Chain of cell-surface B7-2 (P01552 28-266 limits assumed): as above
Chain of SEB (P01552 28-266 limits assumed): as above
Chain of cell-surface CD28 (P01552 28-266 limits assumed): as above
Chain of TSST-1 (P06886 41-234 limits assumed): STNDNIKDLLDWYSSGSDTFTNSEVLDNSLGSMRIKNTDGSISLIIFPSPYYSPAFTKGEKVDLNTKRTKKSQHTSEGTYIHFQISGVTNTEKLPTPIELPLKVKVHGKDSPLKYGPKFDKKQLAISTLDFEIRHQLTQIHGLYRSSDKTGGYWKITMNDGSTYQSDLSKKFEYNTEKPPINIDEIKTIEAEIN

## CSCC[C@H](NC(=O)[C@H](Cc1ccc(O)cc1)NC(=O)[C@H](CCCCN)NC(=O)[C@H](CO)NC(=O)[C@H](Cc1c[nH]cn1)NC(=O)[C@@H](NC(=O)[C@H](CO)NC(=O)[C@H](CC(=O)O)NC(=O)[C@H](Cc1ccccc1)NC(=O)[C@H](CCCCN)NC(=O)[C@@H](N)CCC(=O)O)C(C)C)C(=O)O [pB2-4] (H-EKFDSVHSKYM-OH; N-terminus and C-terminus assumed)
SEB
  kon: 413 M⁻¹ s⁻¹
  koff: 0.000958 s⁻¹
TSST-1
  kon: 4080 M⁻¹ s⁻¹
  koff: 0.0277 s⁻¹
SMEZ
  Ka (1/Ms), association rate: 3,020 1/Ms
  Kd (1/s), dissociation rate: 0.00293 s⁻¹
PBMC induced with SEB
  inhibition of SEB-mediated induction of IFN-γ: only partially
  inhibition of SEB-mediated induction of IL-2: only partially
  inhibition of SEB-mediated induction of TNF-α: only partially

## CC(C)C[C@H](NC(=O)[C@@H](NC(=O)[C@H](Cc1c[nH]c2ccccc12)NC(=O)[C@H](CO)NC(=O)[C@H](CC(=O)O)NC(=O)[C@H](CO)NC(=O)[C@@H](N)CC(=O)O)[C@@H](C)O)C(=O)N[C@@H](CCCNC(=N)N)C(=O)O [pB2-6] (H-DSDSWTLR-OH; N-terminus and C-terminus assumed)
SEB
  kon: 491 M⁻¹ s⁻¹
  koff: 0.0019 s⁻¹
TSST-1
  kon: 2530 M⁻¹ s⁻¹
  koff: 0.00304 s⁻¹
SMEZ
  Ka (1/Ms), association rate: 1,590 1/Ms
  Kd: 1790 nM
  Kd (1/s), dissociation rate: 0.00286 s⁻¹
PBMC induced with SEB
  inhibition of SEB-mediated induction of IFN-γ: only partially
  inhibition of SEB-mediated induction of IL-2: only partially
  inhibition of SEB-mediated induction of TNF-α: only partially

## [dA]EKFDSVHSKYM[dA] [D-Ala-pB2-4]
PBMC induced with SEB
  effect on SEB-mediated induction of IL-10: resistant
  inhibition of SEB-mediated induction of IFN-γ: strongly inhibitory
  inhibition of SEB-mediated induction of IL-2: inhibited
  inhibition of SEB-mediated induction of TNF-α: inhibited
cell-surface B7-2
  inhibition of binding of SEB to cells expressing B7-2: effectively blocked
cell-surface CD28 [1]
  blocking of binding of SEB to cell-surface CD28: capable of blocking
[2]; n=5
  survival of SEB challenge (mice surviving/group): 4/5
[3]
  inhibition of CD28 signaling, IFN-γ induced by αCD3/αCD28: inhibition
  inhibition of CD28 signaling, TNF-α induced by αCD3/αCD28: inhibition
[4]
  attenuation of LPS-mediated induction of TNF-α: sensitive to attenuation; also recorded: reduced

## [dA]MGRTSFDSDS[dA] [D-Ala-pB2-7]
cell-surface B7-2
  inhibition of binding of SEB to cells expressing B7-2: likewise blocked
cell-surface CD28 [1]
  blocking of binding of SEB to cell-surface CD28: capable of blocking
[2]; n=6
  survival of SEB challenge (mice surviving/group): protected and 6/6
PBMC induced with αCD3
  induction of an IFN-γ response by the peptide alone: at neither concentration
  inhibition of induction of IFN-γ by αCD3: did not inhibit
[4]
  attenuation of LPS-mediated induction of TNF-α: reduced

## [dA]DSDSWTLR[dA] [D-Ala-pB2-6]
PBMC induced with SEB
  effect on SEB-mediated induction of IL-10: resistant
  inhibition of SEB-mediated induction of IFN-γ: strongly inhibitory
  inhibition of SEB-mediated induction of IL-2: inhibited
  inhibition of SEB-mediated induction of TNF-α: inhibited
cell-surface B7-2
  inhibition of binding of SEB to cells expressing B7-2: effectively blocked
cell-surface CD28 [1]
  blocking of binding of SEB to cell-surface CD28: capable of blocking
[2]; n=5
  survival of SEB challenge (mice surviving/group): 5/5
[4]
  attenuation of LPS-mediated induction of TNF-α: sensitive to attenuation; also recorded: reduced

## MGRTSFDSDS [pB2-7]
PBMC induced with SEB
  inhibition of SEB-mediated induction of IFN-γ: inhibited
  inhibition of SEB-mediated induction of IL-2: inhibited
  inhibition of SEB-mediated induction of IL-10: did not inhibit
  inhibition of SEB-mediated induction of TNF-α: inhibited
[3]
  attenuation of IFN-γ expression induced by αCD3/αCD28: significant attenuation
  attenuation of TNF-α expression induced by αCD3/αCD28: significant attenuation

## [dA]DLPCQFANSQN[dA] [D-Ala-pB2-2]
PBMC induced with SEB
  inhibition of SEB-mediated induction of IFN-γ: failed to inhibit
cell-surface B7-2
  inhibition of binding of SEB to cells expressing B7-2: did not inhibit binding

## [dA]MLKIQAY[dA] [D-Ala-pB2-5]
PBMC induced with SEB
  inhibition of SEB-mediated induction of IFN-γ: failed to inhibit

## [dA]HHKKPTGMIR[dA] [D-Ala-pB2-3]
PBMC induced with SEB
  inhibition of SEB-mediated induction of IFN-γ: failed to inhibit

## SPMLVAYD [p2TA, reference compound]
cell-surface B7-2
  inhibition of binding of SEB to cells expressing B7-2: equally inhibited
cell-surface CD28 [1]
  blocking of binding of SEB to cell-surface CD28: capable of blocking
cell-surface CD28 [5]
  blocking of binding of SEB to cell-surface CD28: abrogated

## HVKGKHLCP [p1TA, reference compound]
cell-surface B7-2
  inhibition of binding of SEB to cells expressing B7-2: equally inhibited
cell-surface CD28 [1]
  blocking of binding of SEB to cell-surface CD28: capable of blocking
cell-surface CD28 [5]
  blocking of binding of SEB to cell-surface CD28: abrogated
